Assay results reported in paper PMC9415015, “CK2 Inhibition and Antitumor Activity of 4,7-Dihydro-6-nitroazolo[1,5-a]pyrimidines” (Molecules, 2022).

Experiments:
[1] = Solubility noted during the cytotoxicity study; details: cytotoxicity study limited because of it
human recombinant CK2α1 = biological target: T1, human recombinant CK2α1 (Homo sapiens, UniProt P68400); test: CK2 ADP-Glo kinase assay; format: biochemical; details: for Effect on CK2 activity in initial screening (in words): initial screening at 50 μM; for inhibition at 50 µM: 50 μM compound, n.a. = not active, read-out: CK2 Inhibition at 50 μM, m ± SD (%); for inhibition at 50 µM / IC50: 10 μM ATP; for CK2 inhibitory potency in dose-response study (in words) / IC50: dose-response study; for IC50: read-out: CK2 IC50
T1 construct: purchased Promega V4482
T1 sequence (P68400 whole entry): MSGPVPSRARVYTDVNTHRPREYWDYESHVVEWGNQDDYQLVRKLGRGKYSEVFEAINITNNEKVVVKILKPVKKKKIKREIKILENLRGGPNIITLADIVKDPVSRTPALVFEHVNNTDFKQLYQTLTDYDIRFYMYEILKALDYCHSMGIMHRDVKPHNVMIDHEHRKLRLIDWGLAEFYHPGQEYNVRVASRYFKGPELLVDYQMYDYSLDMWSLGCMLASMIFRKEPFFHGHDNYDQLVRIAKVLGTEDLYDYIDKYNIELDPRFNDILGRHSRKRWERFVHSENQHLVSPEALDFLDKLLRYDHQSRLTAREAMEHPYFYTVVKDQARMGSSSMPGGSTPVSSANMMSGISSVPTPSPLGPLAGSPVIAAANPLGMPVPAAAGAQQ
Protocol: Kinase activity was determined using the enzyme system CK2α1 (Promega V4482, Madison, WI, USA) and the ADP-Glo^TM kit (Promega V9101, Madison, WI, USA) in white 96-well plates (Nunc U96 Microwell 267350, Denmark). The reaction was carried out using 50 ng/well of N-GST labeled human recombinant CK2α1, 0.1 µg/µL bovine casein as a substrate, 10 μM ATP in 40 mM Tris buffer solution (pH 7.50) containing 20 mM MgCl2, 0.1 mg/mL of BSA, and 50 μM of DTT. Test compounds were added to 1.25% DMSO (final concentration 0.25%) and preincubated with kinase for 10 min. The reaction was carried out for 60 min at 25 °C in a thermostatically controlled PST-60HL shaker (Biosan. […], Latvia). ATP-dependent luminescence was measured at an integration time of 1000 ms using the Infinite M200 PRO microplate reader (Tecan. Austria). The ATP-competitive inhibitor Staurosporin (CAS 62996–74-1, Alfa Aesar J62837, 99+%) was used as a positive control. The experiments were performed in two parallels.

Hek-293 cells = test: MTT test, human embryonic kidney cells; format: cell-based; details: 72 h incubation
Protocol: (§1) The studies were carried out on cultured cells of human glioblastoma (A-172, ATCC CRL 1620), human osteosarcoma (Hos, ATCC CRL 1543), human embryonic rhabdomyosarcoma (Rd, ATCC CRL 136), and human embryonic kidney 293 cells (Hek-293, ATCC CRL 1573) obtained from the Shared research facility “Vertebrate cell culture collection” (Institute of Cytology RAS, Saint-Petersburg, Russia). The cells were cultured using DMEM / F-12 medium containing 10% fetal bovine serum at 37°C, 5% CO2, and 98% humidity. Subculturing was performed using 0.25% trypsin solution when the culture reached ≥90% confluency.
(§2) The compounds were dissolved in DMSO. The solutions were diluted with DMEM/F-12 culture medium with 10% fetal bovine serum to the studied concentrations: 8, 16, 32, 64, 128, 256, 512, and 1024 µM. […] Cisplatin (cPt) was used as a positive control.
(§3) Cells were seeded in 96-well plates at a concentration of 4 × 10^3 cells per well. After 24 h, test compounds were added to the wells in a given concentration range. Then the cells were incubated for 72 h, after which a solution of MTT (3-(4,5-dimethyl-2-thiazolyl)-2,5-diphenyl-2H-tetrazolium bromide) was added to the cultures at 20 µL (5 mg/mL) to the well. After 2.5 h, the medium was removed from the wells and 200 µL of a mixture of DMSO/i-PrOH 1/1 was added. Optical density was measured on a plate spectrophotometer at a wavelength of 570 nm.
(§4) Statistical data processing was carried out in the RStudio program (Version 1.4.1106 © […] RStudio, PBC, Boston, MA, USA) using the R package (version 4.1.2). The cytotoxicity index (IC50) was calculated by plotting dose–response curves using the “drc” package.

A-172 cells = test: MTT test, glioblastoma cells; format: cell-based, human; details: for Cytotoxicity index IC50 ± SE, A-172: MTT, 72 h incubation
Protocol: as §1, §2, §3, §4

Hos cells = test: MTT test, osteosarcoma cells; format: cell-based, human; details: for Cytotoxicity index IC50 ± SE, Hos: MTT, 72 h incubation
Protocol: as §1, §2, §3, §4

Rd cells = test: MTT test, embryonic rhabdomyosarcoma cells; format: cell-based, human; details: for Cytotoxicity index IC50 ± SE, Rd: MTT, 72 h incubation
Protocol: as §1, §2, §3, §4

[2] = system: A-172, Rd, Hos and Hek-293 cells; test: MTT test, all four cell lines together; format: cell-based; details: Homo sapiens, read-out: IC50 in all cases
Protocol: as §1, §2
(§5) Cells were seeded in 96-well plates at a concentration of 4 × 10^3 cells per well. After 24 h, test compounds were added to the wells in a given concentration range. […] Optical density was measured on a plate spectrophotometer at a wavelength of 570 nm.
as §4

[3] = system: tumor cells A-172, Rd, and Hos; test: MTT test, tumor cell lines together; format: cell-based; details: Homo sapiens, A 172, MTT, across A-172, Rd, 50 µM bound holds 'mostly'
Protocol: as §1, §2, §5, §4

Structure (SMILES) | Solubility (in words) [1] | Effect on CK2 activity in initial screening (in words) (human recombinant CK2α1) | Cytotoxicity index IC50 ± SE, Hek-293 (Hek-293 cells) [µM] | melting point | inhibition at 50 µM (human recombinant CK2α1) [%] | Cytotoxicity index IC50 ± SE, A-172 (A-172 cells) [µM] | Cytotoxicity index IC50 ± SE, Hos (Hos cells) [µM] | Cytotoxicity index IC50 ± SE, Rd (Rd cells) [µM] | IC50 [2] [µM] | CK2 inhibitory potency in dose-response study (in words) (human recombinant CK2α1) | Hill Coefficient (human recombinant CK2α1; dose-response study of CK2 inhibition) | IC50 (human recombinant CK2α1) [µM] | IC50 [3] [µM] | Selectivity ratio SR (A-172) (A-172 cells; normal/cancer cell (Hek-293 vs A-172)) | Selectivity ratio SR (HOS) (Hos cells; normal/cancer cell (Hek-293 vs Hos)) | Selectivity ratio SR (RD) (Rd cells; normal/cancer cell (Hek-293 vs Rd))
O=[N+]([O-])C1=CNc2ccnn2C1c1ccccc1 (centres unmarked) [Compound 5a, 6-Nitro-7-phenyl-4,7-dihydropyrazolo[1,5-a]pyrimidine] | low solubility | paradoxically enhance CK2 activity |  |  |  |  |  |  |  |  |  |  |  |  |  | 
CC1=C([N+](=O)[O-])C(c2ccc([N+](=O)[O-])cc2)n2nccc2N1 (centres unmarked) [Compound 5c, 6-Nitro-5-methyl-7-(4ʹ-nitrophenyl)-4,7-dihydropyrazolo[1,5-a]pyrimidine] | low solubility | paradoxically enhance CK2 activity |  |  |  |  |  |  |  |  |  |  |  |  |  | 
CCC1=C([N+](=O)[O-])C(c2ccc(OC)cc2)n2ncc(C#N)c2N1 (centres unmarked) [Compound 5i, 3-Cyano-5-ehtyl-6-Nitro-7-(4ʹ-metoxyphenyl)-4,7-dihydropyrazolo[1,5-a]pyrimidine] |  |  | 69.52 ± 8.69 | 249 °C (dec.) | 3.66 ± 37.6 | 145.19 ± 8.96 | 88.44 ± 5.85 | 105.10 ± 10.70 |  |  |  |  |  |  |  | 
CCC1=C([N+](=O)[O-])C(c2ccc(O)c(OC)c2)n2ncc(C#N)c2N1 (centres unmarked) [Compound 5j, 3-Cyano-5-Ethyl-6-nitro-7-(3ʹ-methoxy-4ʹ-hydroxyphenyl)-4,7-dihydropyrazolo[1,5-a]pyrimidine] |  |  | 581.39 ± 43.90 |  |  | 566.09 ± 17.12 | 522.38 ± 16.16 | 673.44 ± 20.70 | > 400 |  |  |  |  |  |  | 
CSc1nn2c(c1C#N)NC=C([N+](=O)[O-])C2c1ccccc1 (centres unmarked) [Compound 5l, 3-Cyano-2-methylthio-6-nitro-7-phenyl-4,7-dihydropyrazolo[1,5-a]pyrimidine] |  | Moderate inhibition | 162.30 ± 9.95 |  | 48.4 ± 4.48 | 77.79 ± 4.02 | 92.91 ± 3.91 | 124.66 ± 6.80 |  | micromolar CK2 inhibitors | −2.947 | 57.2 |  |  |  | 
CCC1=C([N+](=O)[O-])C(c2ccc([N+](=O)[O-])cc2)n2nc(SC)c(C#N)c2N1 (centres unmarked) [Compound 5n, 5-Ehtyl-3-cyano-2-methylthio-6-nitro-7-(4ʹ-nitrophenyl)-4,7-dihydropyrazolo[1,5-a]pyrimidine] |  |  | 78.70 ± 9.75 |  | 19.8 ± 24.5 | 119.75 ± 8.49 | 112.26 ± 8.19 | 151.44 ± 7.28 |  |  |  |  |  |  |  | 
O=[N+]([O-])C1=CNc2ncnn2C1c1ccccc1 (centres unmarked) [Compound 6a, 6-Nitro-7-phenyl-4,7-dihydro-1,2,4-triazolo[1,5-a]pyrimidine] |  | paradoxically enhance CK2 activity | 1131.79 ± 77.86 |  |  | 434.08 ± 18.02 | 542.85 ± 21.45 | 448.21 ± 22.53 | > 400 |  |  |  |  |  |  | 
CC1=C([N+](=O)[O-])C(c2ccccc2)n2nc(C(F)(F)F)nc2N1 (centres unmarked) [Compound 6d, 5-Methyl-6-nitro-7-phenyl-2-trifluoromethyl-4,7-dihydro-1,2,4-triazolo[1,5-a]pyrimidine] |  | paradoxically enhance CK2 activity | 50.07 ± 4.43 | 233 to 235 °C |  | 27.49 ± 1.67 | 23.31 ± 1.84 | 37.28 ± 3.77 |  |  |  |  | ≤ 50 | 1.8 | 2.1 | 1.3
CCC1=C([N+](=O)[O-])C(c2ccc([N+](=O)[O-])cc2)n2nc(C(F)(F)F)nc2N1 (centres unmarked) [Compound 6e] |  | Moderate inhibition | 54.16 ± 5.32 |  | 39.8 ± 19.5 | 82.44 ± 2.22 | 93.72 ± 5.89 | 192.69 ± 10.27 |  | low potency |  | > 100 |  |  |  | 
